One series relates to Septoria tritici. The series can be described thus: Example B3: mixtures, preventative activity against Septoria tritici (leaf blotch), liquid culture. The series is classed as cell-based. The conditions noted are these: component A alone, 100-0 scale. A digest of the protocol:
(§1)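 Fungal conidia mixed into potato dextrose broth were added to test compounds or mixtures in DMSO in microtiter wells. Fungicidal activity was scored on a 100-0 scale (100 = no disease growth; 0 = well fully covered by mycelium). Synergy was assessed by the Colby formula, comparing observed (O) with expected (E) action.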

For series [1], the system named is Puccinia recondita f. sp. tritici. The series can be described thus: Puccinia recondita f. sp. tritici / wheat / leaf disc preventative (brown rust). The series is classed as in vivo. The conditions noted are these: foliar, vs untreated control. As for the experimental part:
(§2) Leaf disks or leaf segments of various plant species are cut from plants grown in a greenhouse. The cut leaf disks or segments are placed in multiwell plates (24-well format) onto water agar. The leaf disks are sprayed with a test solution before (preventative) or after (curative) inoculation. Compounds to be tested are prepared as DMSO solutions (max. 10 mg/mL) which are diluted to the appropriate concentration with 0.025% Tween20 just before spraying. The inoculated leaf disks or segments are incubated under defined conditions (temperature, relative humidity, light, etc.) according to the respective test system. A single evaluation of disease level is carried out 3 to 14 days after inoculation, depending on the pathosystem. Percent disease control relative to the untreated check leaf disks or segments is then calculated.
Wheat leaf segments cv. Kanzler are placed on agar in multiwell plates (24-well format) and sprayed with the formulated test compound diluted in water. The leaf disks are inoculated with a spore suspension of the fungus 1 day after application. The inoculated leaf segments are incubated at 19° C. and 75% rh under a light regime of 12 h light/12 h darkness in a climate cabinet and the activity of a compound is assessed as percent disease control compared to untreated when an appropriate level of disease damage appears in untreated check leaf segments (7-9 days after application).

For series [2] the test system is unchanged. The series can be described thus: Puccinia recondita f. sp. tritici / wheat / leaf disc curative (brown rust). The format is in vivo. Particulars: foliar, vs untreated control. The method, then:
Leaf disks or leaf segments of various plant species are cut from plants grown in a greenhouse. The cut leaf disks or segments are placed in multiwell plates (24-well format) onto water agar. The leaf disks are sprayed with a test solution before (preventative) or after (curative) inoculation. […] The inoculated leaf disks or segments are incubated under defined conditions (temperature, relative humidity, light, etc.) according to the respective test system. […] Percent disease control relative to the untreated check leaf disks or segments is then calculated. Wheat leaf segments cv. Kanzler are placed on agar in multiwell plates (24-well format). The leaf segments are inoculated with a spore suspension of the fungus. […] The formulated test compound diluted in water is applied 1 day after inoculation.

The subject of series [3] is Phakopsora pachyrhizi. The series can be described thus: Example B5: preventative activity against Phakopsora pachyrhizi (soybean rust), whole soybean plants sprayed, leaf disks inoculated. The series is classed as in vivo. A digest of the protocol: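 Soybean plants sprayed 4 weeks after planting at rates in g a.i./ha; leaf disks from the first trifoliate cut 1 day later and inoculated with rust, five repetitions per rate. Scored 11–14 days post-inoculation relative to untreated infested check (100 = no disease, 0 = heavy infestation).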

The test system of series [4] is Glomerella lagenarium (Colletotrichum lagenarium). The series can be described thus: Glomerella lagenarium (Colletotrichum lagenarium) liquid culture / cucumber / preventative (anthracnose). Particulars: Colletotrichum orbiculare, vs untreated control. The format is cell-based. As for the experimental part: Mycelia fragments or conidia suspensions of a fungus prepared either freshly from liquid cultures of the fungus or from cryogenic storage, are directly mixed into nutrient broth. DMSO solutions of the test compound (max. 10 mg/mL) are diluted with 0.025% Tween20 by a factor of 50 and 10 μl of this solution is pipetted into a microtiter plate (96-well format). The nutrient broth containing the fungal spores/mycelia fragments is then added to give an end concentration of the tested compound. The test plates are incubated in the dark at 24° C. and 96% relative humidity. The inhibition of fungal growth is determined photometrically after 2 to 7 days, depending on the pathosystem, and percent antifungal activity relative to the untreated check is calculated.
Conidia of the fungus from cryogenic storage are directly mixed into nutrient broth (PDB potato dextrose broth). After placing a (DMSO) solution of test compound into a microtiter plate (96-well format), the nutrient broth containing the fungal spores is added.

The test system of series [5] is Glomerella lagenarium syn. Colletotrichum lagenarium. The series can be described thus: Example B1: mixtures, preventative activity against Glomerella lagenarium syn. Colletotrichum lagenarium, liquid culture. The conditions noted are these: Colletotrichum orbiculare; component A alone, 0.03 ppm. The series is classed as cell-based. The method in brief: as §1
Series [6] concerns Phakopsora pachyrhizi. The series can be described thus: Phakopsora pachyrhizi / soybean / leaf disc preventative (Asian soybean rust). The series is classed as in vivo. The conditions noted are these: foliar, 288 h, vs untreated control. The method, then:
as §2
Soybean leaf disks are placed on agar in multiwell plates (24-well format) and sprayed with test solutions. After drying, the leaf disks are inoculated with a spore suspension of the fungus. After appropriate incubation the activity of a compound is assessed approx.12 dpi (days after inoculation) as preventive fungicidal activity.

Series [7] concerns Mycosphaerella arachidis syn. Cercospora arachidicola. The series can be described thus: Example B4: mixtures, preventative activity against Mycosphaerella arachidis syn. Cercospora arachidicola (brown leaf spot of peanut), liquid culture. The format is cell-based. The conditions noted are these: Mycosphaerella arachidis, component A alone.
The test system of a further series is Septoria glycines. The series can be described thus: Example B2: mixtures, preventative activity against Septoria glycines (brown spot), liquid culture. The series is classed as cell-based. The conditions noted are these: Septoria glycines, component A alone. A digest of the protocol:
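Conidia from fresh culture mixed into potato dextrose broth and added to test compounds in DMSO in 96-well plates. Growth inhibition scored 100-0 (100 = no growth; 0 = well covered by mycelium); synergy of mixtures judged by Colby expected-action (O-E).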

Structures are written as SMILES. Several values for one entry are separate records, joined by “and”; a condition that tells them apart may be missing. Equal values may be shown once. Read-outs that look alike come from different tables or passages of the source. A value given as a limit tells only on which side of the number the result lay.

Regarding `CCCc1ccn(-c2ccc(C)c(O/C(=C\OC)C(=O)OC)c2)n1` [X.01, methyl (Z)-3-methoxy-2-[2-methyl-5-(3-propylpyrazol-1-yl)phenoxy]prop-2-enoate], the melting point was 91 to 94 °C. In the series on Septoria tritici (Zymoseptoria tritici, 0.003125 ppm), the inhibition at 0.003125 ppm amounted to 20%. In addition, the inhibition at 0.00625 ppm with Septoria tritici (Zymoseptoria tritici, 0.00625 ppm) is 50%. For the same compound, the “Activity (%) A” value with Septoria tritici (0.00625 ppm) is given as 70%. This compound registered a pest or weed control at 200 ppm in series [1] of at least 80%. In [2], this compound yielded a pest or weed control at 200 ppm of at least 80%. Moreover, in the series with Phakopsora pachyrhizi [3] (Phakopsora pachyrhizi, foliar, active ingredient alone, 9 g/ha, read-out: Observed Activity (%) (% of untreated)), the inhibition at 9 g/ha worked out at 78%. In the series with Phakopsora pachyrhizi [3] (Phakopsora pachyrhizi, foliar, active ingredient alone, 18 g/ha, read-out: Observed Activity (%) (% of untreated)), the inhibition at 18 g/ha amounted to 85%. Further, the inhibition at 9 g/ha in the series with Phakopsora pachyrhizi [3] (Phakopsora pachyrhizi, foliar, applied alone, 9 g/ha, read-out: Observed Activity (% of untreated) against Phakopsora pachyrhizi) was 85%. Besides, the “Observed Activity (%) (% of untreated)” value in the series with Phakopsora pachyrhizi [3] (active ingredient alone, 4.5 g/ha) is 61% and 87% and 82% and 69%. In the series on Phakopsora pachyrhizi [3] (active ingredient alone, 9 g/ha), the “Observed Activity (%) (% of untreated)” value is 94% and 90%. In the series with Phakopsora pachyrhizi [3] (active ingredient alone, 18 g/ha), the “Observed Activity (%) (% of untreated)” value is 97%. In the series with Phakopsora pachyrhizi [3] (applied alone, 2.25 g/ha), the “Observed Activity (% of untreated) against Phakopsora pachyrhizi” value is 24% and 31%. Also, in the series with Phakopsora pachyrhizi [3] (applied alone, 4.5 g/ha), the “Observed Activity (% of untreated) against Phakopsora pachyrhizi” value was 69% and 64%. The inhibition of growth at 6.7 ppm in [4] is at least 80%. In addition, in series [5], the inhibition at 0.03 ppm is 70%. This compound displayed a pest or weed control at 67 ppm in the series on Phakopsora pachyrhizi [6] of at least 80%. In addition, the inhibition at 0.003125 ppm in series [7] (0.003125 ppm) is 0%. In addition, the inhibition at 0.00625 ppm in series [7] (0.00625 ppm) worked out at 20%. Also, the inhibition at 0.003125 ppm in the series with Septoria glycines (0.003125 ppm) is 20%. Also, in the series on Septoria glycines (0.00625 ppm), the inhibition at 0.00625 ppm was found to be 70%.

(Values after patent US20230131427A1, “FUNGICIDAL COMPOSITIONS” (SYNGENTA CROP PROTECTION AG, priority 2020, published 2023).)
